Series [1] is described as follows: Mouse Fast PK/BBB. Particulars: male, C57bl/6j, oral, Dose 30 mg/kg. Format: in vivo, Male C57bl/6j mice. Here is the method:
Male C57bl/6j mice were ordered from Charles River at 22-25 g and housed 3 per cage. They were fed standard chow (Purina 5001).
Male C57bl/6j mice were dosed with test compounds at 20 mg/kg or 30 mg/kg. Plasma was collected via retro-orbital bleeding at 1 hr and 4 hrs after dosing. Whole brain without cerebellum was collected at 4 hrs after dosing. Wet brain weight was recorded before freezing. Brains were homogenized in saline and sent for analysis for determination of concentration of test compound.

Series [2] addresses Human CB1R (Cannabanoid receptor 1) (Homo sapiens (Human), UniProt P21554). As to the kind of experiment: CB-1 in vitro cAMP (HTRF) assay in HEK-293 cells. Format: cell-based. The settings on record: HEK-293 cells stably transfected with human CB1R, 250 nM Forskolin, mean where tested more than once, read-out: CB-1 (HEK_cAMP) EC50. An outline of the steps: (§1)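 HEK-293 cells stably expressing human CB1 or CB2 plated overnight, then tested in HBSS/5 mM HEPES/0.1% BSA with 0.5 mM IBMX and forskolin (1.5 μM working dilution). Intracellular cAMP quantified by competitive HTRF immunoassay (d2-cAMP, cryptate anti-cAMP) against a cAMP standard curve; compounds as 1/3 serial dilutions from 10 mM DMSO stocks.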
(In general: TR-FRET usually uses a lanthanide donor and a delayed reading to cut background.)

Series [3] is described as follows: Mouse Fast PK/BBB. Format: in vivo, Male C57bl/6j mice. Particulars: male, C57bl/6j, brain, oral, Dose 30 mg/kg, read-out: BRAIN Mean Conc. (ng/mL) ± Std. Dev.
In series [4] the target is Human CB2R (Cannabanoid receptor 2) (Homo sapiens (Human), UniProt P34972). As to the kind of experiment: CB-2 in vitro cAMP (HTRF) assay in HEK-293 cells. Format: cell-based. Particulars: HEK-293 cells stably transfected with human CB2R, 250 nM Forskolin, mean where tested more than once, read-out: CB-2 (HEK_cAMP) EC50. Put shortly: as §1

Where two headings read alike, the source gives them in different places.

Sequence of Human CB1R (Cannabanoid receptor 1) (P21554 whole entry): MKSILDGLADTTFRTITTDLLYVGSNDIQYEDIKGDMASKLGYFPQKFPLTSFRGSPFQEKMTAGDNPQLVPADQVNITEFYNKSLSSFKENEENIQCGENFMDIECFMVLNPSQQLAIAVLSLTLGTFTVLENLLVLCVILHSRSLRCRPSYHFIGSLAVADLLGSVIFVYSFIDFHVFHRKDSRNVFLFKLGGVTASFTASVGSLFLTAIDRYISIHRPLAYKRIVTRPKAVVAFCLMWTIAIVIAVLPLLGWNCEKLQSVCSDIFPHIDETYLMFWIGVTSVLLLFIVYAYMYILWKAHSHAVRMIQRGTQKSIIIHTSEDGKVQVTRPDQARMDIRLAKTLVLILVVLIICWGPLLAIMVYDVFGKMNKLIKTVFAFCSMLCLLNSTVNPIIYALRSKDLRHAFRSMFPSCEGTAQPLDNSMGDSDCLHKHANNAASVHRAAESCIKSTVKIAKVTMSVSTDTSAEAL
Sequence of Human CB2R (Cannabanoid receptor 2) (P34972 whole entry): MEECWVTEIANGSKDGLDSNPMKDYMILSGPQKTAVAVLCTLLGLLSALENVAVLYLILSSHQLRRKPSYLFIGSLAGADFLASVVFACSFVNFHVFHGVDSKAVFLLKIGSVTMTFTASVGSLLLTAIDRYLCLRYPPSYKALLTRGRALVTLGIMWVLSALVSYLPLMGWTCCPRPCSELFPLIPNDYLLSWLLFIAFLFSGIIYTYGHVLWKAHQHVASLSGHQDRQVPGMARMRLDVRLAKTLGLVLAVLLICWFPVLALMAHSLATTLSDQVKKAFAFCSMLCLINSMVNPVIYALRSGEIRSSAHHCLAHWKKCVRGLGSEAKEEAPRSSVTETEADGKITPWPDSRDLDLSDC

The term EC50 denotes the concentration needed to bring the measured effect to its halfway point. As for `O=S(=O)(c1cccc(O)c1)N1CCC(c2c3cc(C(c4ccc(Cl)cc4)c4ccc(Cl)cc4)ccc3nn2C2CC2)CC1` [Compound 151, 3-(4-(5-(bis(4-chlorophenyl)methyl)-2-cyclopropyl-2H-indazol-3-yl)piperidin-1-ylsulfonyl)phenol], the concentration at 4 hr was 31.4 ± 13.4 ng/mL in “Mouse Fast PK/BBB [1]” (brain, read-out: BRAIN Mean Conc. (ng/mL) ± Std. Dev) and 884 ± 584 ng/mL in “Mouse Fast PK/BBB [1]” (plasma, read-out: PLASMA Mean Conc. (ng/mL) ± Std. Dev). Besides, the concentration at 1 hr in “Mouse Fast PK/BBB [1]” (plasma, Time 1 hr, read-out: PLASMA Mean Conc. (ng/mL) ± Std. Dev) was determined as 2740 ± 160 ng/mL; in “Mouse Fast PK/BBB [3]”, 41.8 ± 15.7 ng/mL. The EC50 in series [2] is 6 nM; in series [4], above 10000 nM.
